The values that follow come from patent US20200375987A1, “METALLO-BETA-LACTAMASE INHIBITORS AND METHODS OF USE THEREOF” (priority 2018, published 2020).

What all share (type): cell-based
The test system of assay [1] is Pseudomonas aeruginosa MB5919 Trans pFlp-Vim2 plasmid (efflux+). The conditions noted are these: MB 5919 Trans pFlp-Vim2 plasmid, OprD+.
The subject of assay [2] is Pseudomonas aeruginosa MB9861 (MB5919 Trans pFlp-Vim1 plasmid, efflux+). Conditions: MB5919 Trans pFlp-Vim1 plasmid (MB 9861), OprD+.
In assay [3] the test system is Pseudomonas aeruginosa MB9862 (MB5890 trans pFlp-Vim1 plasmid, efflux−). Conditions: MB 5890 trans pFlp-Vim1 plasmid (MB 9862), OprD+.
The test system of assay [4] is Pseudomonas aeruginosa MB5890 Trans pFlp-Vim2 plasmid (efflux−). Conditions: MB 5890 Trans pFlp-Vim2 plasmid, OprD+.
Assay [5] relates to Pseudomonas aeruginosa MB5890 (oprD+, efflux−). Conditions: MB 5890, OprD+. The source says: (§1) The strain background is Pseudomonas aeruginosa PAO1. A wild-type (MB5919) and an isogenic strain in which multiple efflux pumps have been disrupted genetically were used. The MBL IMP-1, obtained from a clinical isolate was introduced into the strain pair by the following process:
(§2) Plasmid DNA (encoding IMP-1) was extracted from CL 5673 (IMP-1, P. aeruginosa clinical strain) by standard techniques. The plasmid DNA was transformed into parental MB5919 (oprD+, efflux+, inducible AmpC) and MB5890 (oprD+, efflux−, inducible AmpC) isogenic strains by electroporation. These transformed strains were plated onto cation-adjusted Muller-Hinton agar plates containing ceftazidime at 32 μg/mL (MB5919) and 16 μg/mL (MB5890) to select for those cells in which the IMP-1-expressing plasmid was introduced successfully, resulting in resistance to ceftazidime.
(§3) Minimum inhibitory concentrations of sentinel antibiotics were performed to quality control the new strains.

Assay [6] relates to Pseudomonas aeruginosa PAO1 MB5919 (oprD+, efflux+).
Excerpt: as §1, §2, §3

For assay [7], the system named is Pseudomonas aeruginosa MB9798 (MB5919 Trans IMP1 plasmid, efflux+). The conditions noted are these: MB5919 Trans IMP1 plasmid (MB 9798), OprD+.
Excerpt: as §1, §2, §3

In assay [8] the test system is Pseudomonas aeruginosa MB9799 (MB5890 Trans IMP1 plasmid, efflux−). Conditions: MB 5890 Trans IMP1 plasmid (MB 9799), OprD+.
Excerpt: as §1, §2, §3

Converted amounts (≈) assume the structure as drawn.

The term MIC denotes the smallest concentration in the dilution series that meets the test's criterion for growth inhibition. Low readings indicate inhibition by little substance, high ones a need for much substance. With `CC[C@H]1OC(=O)[C@H](C)[C@@H](O[C@H]2C[C@@](C)(OC)[C@@H](O)[C@H](C)O2)[C@H](C)[C@@H](O[C@@H]2O[C@H](C)C[C@H](N(C)C)[C@H]2O)[C@](C)(O)C[C@@H](C)CN(C)[C@H](C)[C@@H](O)[C@]1(C)O` [Azithromycin], the MIC in assay [1] was found to be 32 µg/mL (≈ 42.7 µM); in assay [2] it was 32 µg/mL (≈ 42.7 µM); in assay [3] it was 1 µg/mL (≈ 1.34 µM); in assay [4], 1 µg/mL (≈ 1.34 µM); in assay [5], 1 µg/mL (≈ 1.34 µM); in assay [6] it was 16 µg/mL (≈ 21.4 µM). In addition, the MIC in assay [7] and in assay [8] was 2 µg/mL (≈ 2.67 µM) each time.
In the case of `CC(C)(O/N=C(\C(=O)N[C@@H]1C(=O)N2C(C(=O)[O-])=C(C[n+]3ccccc3)CS[C@H]12)c1csc(N)n1)C(=O)O` [CAZ, ceftazidime], the MIC is 128 µg/mL (≈ 234 µM) in assay [1]; more than 256 µg/mL in assay [2]; more than 256 µg/mL in assay [3]; 64 µg/mL (≈ 117 µM) in assay [4]; 0.5 µg/mL (≈ 0.915 µM) in assay [5]; 1 µg/mL (≈ 1.83 µM) in assay [6]. Also, the MIC in assay [7] and in assay [8] was 256 µg/mL (≈ 468 µM) each time.
Regarding `O=C(N[C@H](CO)[C@H](O)c1ccc([N+](=O)[O-])cc1)C(Cl)Cl` [Chloramphenicol], the minimum inhibitory concentration (MIC) is more than 64 µg/mL in assay [1]; more than 64 µg/mL in assay [2]; 2 µg/mL (≈ 6.19 µM) in assay [3]; 1 µg/mL (≈ 3.09 µM) in assay [4]; 1 µg/mL (≈ 3.09 µM) in assay [5]; more than 64 µg/mL in assay [6]. Besides, the MIC was more than 64 µg/mL in assay [7] and 1 µg/mL (≈ 3.09 µM) in assay [8].
For the molecule `C[C@@H](O)[C@H]1C(=O)N2C(C(=O)O)=C(SCCN=CN)C[C@H]12` [Imipenem], the MIC in assay [1] is more than 64 µg/mL; in assay [2], more than 64 µg/mL; in assay [3], 64 µg/mL (≈ 214 µM); in assay [4], 32 µg/mL (≈ 107 µM); in assay [5], 2 µg/mL (≈ 6.68 µM); in assay [6], 4 µg/mL (≈ 13.4 µM). Besides, the MIC in assay [7] is 64 µg/mL (≈ 214 µM); in assay [8], 32 µg/mL (≈ 107 µM).
With `C[C@@H](O)[C@H]1C(=O)N2C(C(=O)O)=C(S[C@@H]3CN[C@H](C(=O)N(C)C)C3)[C@H](C)[C@H]12` [Meropenem], the MIC in assay [1] was more than 64 µg/mL; in assay [2], more than 64 µg/mL; in assay [3], 64 µg/mL (≈ 167 µM); in assay [4] it was 32 µg/mL (≈ 83.4 µM); in assay [5], 0.5 µg/mL (≈ 1.3 µM); in assay [6] it was 2 µg/mL (≈ 5.22 µM). In addition, the values for the MIC in assay [7] and in assay [8] were more than 64 µg/mL and 64 µg/mL (≈ 167 µM), respectively.
Take `CCN1CCN(C(=O)N[C@@H](C(=O)N[C@@H]2C(=O)N3[C@@H]2SC(C)(C)[C@@H]3C(=O)O)c2ccccc2)C(=O)C1=O` [Pipercillin]: the MIC in assay [1] was more than 256 µg/mL; in assay [2], more than 256 µg/mL; in assay [3], 128 µg/mL (≈ 247 µM); in assay [4], 128 µg/mL (≈ 247 µM); in assay [5], 1 µg/mL (≈ 1.93 µM); in assay [6], 2 µg/mL (≈ 3.86 µM). The MIC in assay [7] and in assay [8] was 4 µg/mL (≈ 7.73 µM) each time.
